According to US12590099B2, “Inhibitors of histone deacetylase useful for the treatment or prevention of HIV infection” (Merck Sharp & Dohme LLC, priority 2018, dated 2026):
Read-outs that look alike come from different tables or passages of the source.

What was measured:
HDAC6 = target: T1, HDAC6 (Homo sapiens, UniProt Q9UBN7); test: Human HDAC enzyme inhibitor Fluor-de-Lys assay, HDAC6; assay type: biochemical
T1 sequence (Q9UBN7 1-1215): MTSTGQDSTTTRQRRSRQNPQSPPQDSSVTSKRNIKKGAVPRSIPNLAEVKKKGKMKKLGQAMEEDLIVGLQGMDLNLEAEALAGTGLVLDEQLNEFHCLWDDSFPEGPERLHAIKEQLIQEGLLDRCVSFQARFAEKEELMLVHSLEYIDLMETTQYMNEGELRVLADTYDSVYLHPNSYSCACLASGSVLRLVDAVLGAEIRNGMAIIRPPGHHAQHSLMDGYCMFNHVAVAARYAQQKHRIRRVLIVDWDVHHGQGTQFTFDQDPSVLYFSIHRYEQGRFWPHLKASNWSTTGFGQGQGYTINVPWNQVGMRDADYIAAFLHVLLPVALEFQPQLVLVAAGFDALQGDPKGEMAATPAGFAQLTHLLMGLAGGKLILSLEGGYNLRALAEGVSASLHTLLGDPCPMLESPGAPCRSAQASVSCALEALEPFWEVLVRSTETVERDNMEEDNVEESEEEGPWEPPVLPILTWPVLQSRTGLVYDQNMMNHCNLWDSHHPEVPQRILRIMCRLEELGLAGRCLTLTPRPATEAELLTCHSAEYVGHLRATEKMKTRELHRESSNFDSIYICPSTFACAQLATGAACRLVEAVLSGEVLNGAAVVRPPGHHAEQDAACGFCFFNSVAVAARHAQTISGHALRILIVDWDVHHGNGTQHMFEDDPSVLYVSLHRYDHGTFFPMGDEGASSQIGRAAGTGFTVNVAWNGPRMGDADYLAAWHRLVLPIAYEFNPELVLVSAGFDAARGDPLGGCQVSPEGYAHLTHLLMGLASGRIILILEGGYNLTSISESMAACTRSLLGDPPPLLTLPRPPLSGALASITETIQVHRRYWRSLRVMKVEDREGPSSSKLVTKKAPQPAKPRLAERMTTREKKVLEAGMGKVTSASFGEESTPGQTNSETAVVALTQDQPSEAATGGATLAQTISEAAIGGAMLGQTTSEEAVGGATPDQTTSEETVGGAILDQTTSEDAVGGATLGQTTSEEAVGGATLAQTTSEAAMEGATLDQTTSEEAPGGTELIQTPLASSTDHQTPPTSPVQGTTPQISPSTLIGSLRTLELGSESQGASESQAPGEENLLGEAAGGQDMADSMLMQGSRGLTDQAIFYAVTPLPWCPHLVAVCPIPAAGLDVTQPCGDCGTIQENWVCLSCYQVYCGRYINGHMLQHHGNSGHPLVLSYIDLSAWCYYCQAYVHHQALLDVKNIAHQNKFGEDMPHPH
Procedure: (§1) Human HDAC Enzyme Inhibitor Fluor-De-Lys Assay
(§2) Recombinant human HDAC8 (BML-SE145-0100) and HDAC10 (BML-SE559-0050) enzymes, HDAC substrates BML-KI104 and BML-KI178, and HDAC developer solutions BML-KI105 and BML-KI176 were purchased from Enzo Life Sciences. […] HDAC inhibitor suberoylanilide hydroxamic acid (SAHA) was obtained from Indofine and trichostatin A (TSA) was obtained from Sigma-Aldrich.
(§3) The histone deacetylase activities of HDAC1, HDAC2, HDAC3, HDAC6, and HDAC8 were measured in modified FLUOR DE LYS assays in 384-well format. In this assay, HDAC enzymes are initially incubated with an ε-acetyl (or -trifluoroacetyl)-L-lysine-containing substrate with a C-terminal amide having aminomethylcoumarin as the amine component. HDACs cleave the ε-acetyl group, rendering the resulting product susceptible to AMC cleavage by trypsin. The released AMC is then detected by its fluorescence.
(§4) The HDAC3/SMRT assay employed buffer B, consisting of 20 mM HEPES, pH 8.0, 1 mM MgCl2, 50 mM NaCl, 2.7 mM KCl, 0.05% BSA, 0.005% Tween 20, and 10 μM IP4. […] The HDAC8 assay employed buffer D, consisting of 20 mM HEPES, pH 8.0, 1 mM MgCl2, 100 mM NaCl, 20 mM KCl, 0.10% n-octyl-β-D-glucoside (Anatrace) and 0.05% BSA. All steps were performed at room temperature (23° C.). The assay was performed by pre-incubating serial dilutions of test compounds with the target HDAC prior to initiation with substrate. Each compound was titrated in a 10-point dose response, using a 1:3 fold dilution scheme, with 0.15 ul of solution added by ECH0555 to the plate, followed by the addition of 20 μl of the appropriate HDAC isoform diluted in appropriate assay buffer. […] Final conditions used for each assay were: 1. HDAC 1, 0.3 nM total enzyme, 20 μM substrate BML-KI104; 2. […] HDAC 3/SMRT, 0.3 nM total enzyme, 20 μM substrate BML-KI104; 4. […] The reactions were stopped and developed by addition of 30 ul of HDAC developer solution containing a saturating level of HDAC inhibitor as follows: 1.

KARN cells (Jurkat 2C4) = test: cells; assay type: cell-based; details: Homo sapiens, Jurkat
Procedure: KARN cells (Jurkat 2C4) were licensed from the laboratory of Dr. John Karn, Case Western Reserve University, School of Medicine. […] An atmosphere of 5% CO2 and 90% humidity was used for all culture work.
Day 1: After the 3-4 day growth period, the cells were transferred from the T175 flask to a 50 ml conical tube and gently pelleted at 1000 rpm for 5 minutes. […] These flasks were returned to the incubator.
Day 2: Cell Preparation: The next day, the cells were transferred from each T175 flask to an individual 50 ml conical tube and gently pelleted at 1000 rpm for 5 minutes. The cells were gently resuspended in assay media (30 ml) and pelleted again. […] The cells were counted using the ViCell (Beckman Coulter) and diluted as necessary. […] The plates were covered and returned to the incubator prior to compound addition.
The reference compounds, DMSO and SAHA were then added to the compound plate. […] The final high concentration for SAHA and the test compounds in the assays was 40 μM. The final DMSO concentration in all wells was 0.4%. The minimal induction reference compound used was DMSO and the maximal induction reference compound used was SAHA (2 μM final concentration in the assay).
Day 3: The luciferase detection reagent was prepared by transferring the contents of one bottle of Steady-Glo buffer to one bottle of Steady-Glo aubstrate (Steady-Glo Luciferase Assay System, Promega, catalog number E2520), followed by gently mixing until the substrate was thoroughly dissolved and the solution was equilibrated to room temperature. […] The Steady-Glo Reagent was added to the plates (30 μl/well), which were then covered with a black lid and incubated for 10 minutes at room temperature. The plates were then read for luminescence on an Envision (Perkin Elmer) using the ultrasensitive mode (US LUM), […] and 384-well aperture. Luminescence counts in the DMSO reference wells were considered as 0% induction, while those in the 2 μM SAHA reference wells were considered as 100% induction. Dose response curves were plotted as test compound concentration (X-axis) vs. percent activation (Y-axis) using a 4-parameter fit based on the Levenberg-Marquardt algorithm.

Recombinant human HDAC8 = target: T2, Recombinant human HDAC8 (Homo sapiens, UniProt Q9BY41); test: Human HDAC enzyme inhibitor Fluor-de-Lys assay, HDAC8; assay type: biochemical
T2 construct: purchased Enzo Life Sciences BML-SE145-0100
T2 sequence (Q9BY41 1-377): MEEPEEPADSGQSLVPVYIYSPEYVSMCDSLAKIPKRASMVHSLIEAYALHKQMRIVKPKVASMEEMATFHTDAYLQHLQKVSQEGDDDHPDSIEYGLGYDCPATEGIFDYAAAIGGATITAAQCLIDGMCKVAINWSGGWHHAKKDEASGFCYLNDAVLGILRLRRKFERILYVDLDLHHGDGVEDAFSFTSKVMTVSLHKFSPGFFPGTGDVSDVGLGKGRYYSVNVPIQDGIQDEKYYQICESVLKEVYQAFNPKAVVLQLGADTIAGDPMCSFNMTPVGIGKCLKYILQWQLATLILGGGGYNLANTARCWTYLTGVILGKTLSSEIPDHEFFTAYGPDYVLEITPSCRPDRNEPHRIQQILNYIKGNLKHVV
Procedure: as §1, §2, §3, §4

[1] = read-out: Karn EC50 (nM) 0.1% NHS, 0.1% normal human serum
[2] = read-out: Karn EC50 (nM) 5% NHS, 5% normal human serum
[3] = read-out: Karn EC50 (nM) 0.1% NHS, 0.1% normal human serum, luciferase induction, 100% = 2 μM SAHA
[4] = read-out: Karn EC50 (nM) 5% NHS, 5% normal human serum, luciferase induction, 100% = 2 μM SAHA
[5] = recombinant human HDAC8, Fluor-de-Lys assay

| SMILES | IC50 (HDAC6) | EC50 (KARN cells (Jurkat 2C4); [1]) | EC50 (KARN cells (Jurkat 2C4); [2]) | IC50 (Recombinant human HDAC8) | IC50 (HDAC6; HDAC6, Fluor-de-Lys assay) | EC50 (KARN cells (Jurkat 2C4); [3]) | EC50 (KARN cells (Jurkat 2C4); [4]) | IC50 (Recombinant human HDAC8; [5]) |
| --- | --- | --- | --- | --- | --- | --- | --- | --- |
| CCC(=O)CCCCC[C@H](NC(=O)[C@H]1CC12CCN(C)CC2)c1ncc(-c2cc3ccc(-c4ncco4)cc3nc2OC)[nH]1 [Compound 175, (1S)—N-[(1S)-1-{5-[2-methoxy-7-(1,3-oxazol-2-yl)quinolin-3-yl]-1H-imidazol-2-yl}-7-oxononyl]-6-methyl-6-azaspiro[2.5]octane-1-carboxamide] | > 150 nM | 48 nM | 84 nM | > 150 nM |  |  |  |  |
| CCC(=O)CCCCC[C@H](NC(=O)[C@H]1CC12CCN(C)CC2)c1ncc(-c2cc3ccc(-n4cccn4)cc3nc2OC)[nH]1 [Compound 176, (1S)—N-[(1S)-1-{5-[2-methoxy-7-(1H-pyrazol-1-yl)quinolin-3-yl]-1H-imidazol-2-yl}-7-oxononyl]-6-methyl-6-azaspiro[2.5]octane-1-carboxamide] | > 1500 nM | 45 nM | 76 nM | > 4500 nM |  |  |  |  |
| CCC(=O)CCCCC[C@H](NC(=O)[C@H]1CC12CCN(C)CC2)c1ncc(-c2cc3ccc(Cl)cc3nc2OC)[nH]1 [Compound 177] | 341 nM | 22 nM | 41 nM | 2560 nM |  |  |  |  |
| CCC(=O)CCCCC[C@H](NC(=O)[C@H]1CC12CCN(CC)CC2)c1ncc(-c2cc3cccnc3cc2OC)[nH]1 [Compound 181] | 144 nM | 52 nM | 63 nM | 5250 nM |  |  |  |  |
| CCC(=O)CCCCC[C@H](NC(=O)[C@H]1CC12CCN(CC)CC2)c1ncc(-c2ccc(OC)cc2OC)[nH]1 [Compound 183] | 898 nM | 58 nM | 93 nM | 10400 nM |  |  |  |  |
| CCC(=O)CCCCC[C@H](NC(=O)[C@H]1CC12CCN(CC)CC2)c1ncc(-c2cc3nn(C)cc3cc2OC)[nH]1 [Compound 190] | 562 nM | 967 nM | 1450 nM | 3110 nM |  |  |  |  |
| CCC(=O)CCCCC[C@H](NC(=O)[C@H]1CC12CCN(CC)CC2)c1ncc(-c2ccc(F)cc2OC)[nH]1 [Compound 197] | 3380 nM | 369 nM | 538 nM | 7540 nM |  |  |  |  |
| CCN1CCC2(CC1)C[C@@H]2C(=O)N[C@@H](CCCCCC(=O)CC1CC1)c1ncc(-c2cccnc2OC)[nH]1 [Compound 202] | 34900 nM | 210 nM | 501 nM | 8780 nM |  |  |  |  |
| CCC(=O)CCCCC[C@H](NC(=O)[C@H]1CC12CCN(CC)CC2)c1ncc(-c2ccc(C)cc2OC)[nH]1 [Compound 208] | 756 nM | 53 nM | 63 nM | 1450 nM |  |  |  |  |
| CCC(=O)CCCCC[C@H](NC(=O)[C@H]1CC12CCN(CC)CC2)c1ncc(-c2cc3ccn(CC)c(=O)c3cc2OC)[nH]1 [Compound 245] |  |  |  |  | 694 nM | 18 nM | 22 nM | 9010 nM |
| CCC(=O)CCCCC[C@H](NC(=O)C1CCC2(CC1)CN(CC)C2)c1ncc(-c2cc3ccccc3nc2OC)[nH]1 [Compound 271] |  |  |  |  | 464 nM | 154 nM | 634 nM | 1750 nM |
| CCC(=O)CCCCC[C@H](NC(=O)C1CC2(CCN(C)CC2)C1)c1ncc(-c2cc3ccccc3nc2OC)[nH]1 [Compound 277] |  |  |  |  | 405 nM | 140 nM | 708 nM | 1920 nM |
| CCC(=O)CCCCC[C@H](NC(=O)C1CC2(CCN(CC)CC2)C1)c1ncc(-c2cc3ccccc3nc2OC)[nH]1 [Compound 278] |  |  |  |  | 479 nM | 166 nM | 1000 nM | 980 nM |
| CCC(=O)CCCCC[C@H](NC(=O)C1CC2(C1)CN(CC)C2)c1ncc(-c2cc3ccccc3nc2OC)[nH]1 [Compound 279] |  |  |  |  | 362 nM | 160 nM | 860 nM | 5120 nM |
| CCC(=O)CCCCC[C@H](NC(=O)[C@@H]1CC12CCCN(C)C2)c1ncc(-c2cc3ccccc3nc2OC)[nH]1 (stereo partly shown) [Compound 285] |  |  |  |  | 260 nM | 257 nM | 1010 nM | 9190 nM |
| CCC(=O)CCCCC[C@H](NC(=O)[C@H]1CC12CCCN(C)C2)c1ncc(-c2cc3ccccc3nc2OC)[nH]1 (stereo partly shown) [Compound 286] |  |  |  |  | 342 nM | 116 nM | 406 nM | 3870 nM |
